Assay in all cases: SILAC LC-MS ATP acyl phosphate probe competition, native kinases in HEK293T
Holding throughout (assay type): binding

Assay [1] concerns the target T1, CHK2 (Serine/threonine-protein kinase Chk2) (Homo sapiens, UniProt O96017).
T1 construct: measured against >50 native kinases quantified in HEK293T soluble proteomes; endogenous in cells; host or cells: HEK293T soluble proteome
Conditions: for SILAC ratio, CHK2 probe-modified peptide: site Lys1, ATP 1 mM, Ketanserin, Ritanserin 100 μM, RF001 1 mM. In short, it runs like this: (§1)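 First, HEK293T proteomes at 2 mg/ml in kinase buffer were exposed to compound (heavy) or DMSO (light) for 30 min at 25° C. Next, samples were pooled 1:1 and trypsin/Lys-C digested. Finally, desthiobiotin peptides were enriched on avidin and measured by data-dependent LC-MS/MS.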

Assay [2] has as its target T2, MP2K3 (Dual specificity mitogen-activated protein kinase kinase 3) (Homo sapiens, UniProt P46734).
T2 construct: Native kinases; endogenous in cells; host or cells: HEK293T soluble proteome
T2 sequence (P46734 1-347): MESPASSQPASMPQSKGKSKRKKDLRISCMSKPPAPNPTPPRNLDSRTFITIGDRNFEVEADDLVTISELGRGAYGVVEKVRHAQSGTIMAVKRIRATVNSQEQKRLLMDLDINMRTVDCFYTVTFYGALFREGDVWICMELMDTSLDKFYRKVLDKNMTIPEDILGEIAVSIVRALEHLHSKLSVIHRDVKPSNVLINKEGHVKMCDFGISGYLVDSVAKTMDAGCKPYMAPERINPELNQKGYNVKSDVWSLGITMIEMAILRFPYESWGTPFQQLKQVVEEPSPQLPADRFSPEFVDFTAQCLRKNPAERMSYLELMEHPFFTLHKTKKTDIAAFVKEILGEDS
The following applies: site Lys2; ATP 1 mM; Ketanserin, Ritanserin 100 μM; RF001 1 mM. The method in brief:
as §1

Assay [3] deals with T3, PI42C (Phosphatidylinositol-5-phosphate 4-kinase type-2 gamma) (Homo sapiens, UniProt Q8TBX8).
T3 construct: Native kinases; endogenous in cells; host or cells: HEK293T soluble proteome
T3 sequence (Q8TBX8 1-421): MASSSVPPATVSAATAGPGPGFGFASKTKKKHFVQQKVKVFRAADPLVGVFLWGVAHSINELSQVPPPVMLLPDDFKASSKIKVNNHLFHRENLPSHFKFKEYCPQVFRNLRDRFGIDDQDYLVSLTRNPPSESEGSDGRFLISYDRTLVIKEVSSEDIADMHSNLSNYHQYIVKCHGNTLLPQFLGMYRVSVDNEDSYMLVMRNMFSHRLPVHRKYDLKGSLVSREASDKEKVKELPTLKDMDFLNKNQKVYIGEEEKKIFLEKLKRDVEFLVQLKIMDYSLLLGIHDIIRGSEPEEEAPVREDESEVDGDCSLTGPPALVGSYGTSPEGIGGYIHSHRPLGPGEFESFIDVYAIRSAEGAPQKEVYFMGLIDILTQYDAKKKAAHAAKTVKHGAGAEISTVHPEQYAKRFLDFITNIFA
Conditions: site C2; ATP 1 mM; Ketanserin, Ritanserin 100 μM; RF001 1 mM. The method in brief:
as §1

Assay [4] has as its target T4, SLK (CTCL tumor antigen se20-9) (Homo sapiens, UniProt Q9H2G2).
T4 construct: Native kinases; endogenous in cells; host or cells: HEK293T soluble proteome
Conditions: site Lys2; ATP 1 mM; Ketanserin, Ritanserin 100 μM; RF001 1 mM. In short, it runs like this:
as §1

Assay [5] addresses T5, STK38 (Serine/threonine-protein kinase 38) (Homo sapiens, UniProt Q15208).
T5 construct: Native kinases; endogenous in cells; host or cells: HEK293T soluble proteome
The following applies: site Lys1; ATP 1 mM; Ketanserin, Ritanserin 100 μM; RF001 1 mM. In short, it runs like this: as §1

The structures appear in SMILES notation.

T4 sequence (Q9H2G2 whole entry): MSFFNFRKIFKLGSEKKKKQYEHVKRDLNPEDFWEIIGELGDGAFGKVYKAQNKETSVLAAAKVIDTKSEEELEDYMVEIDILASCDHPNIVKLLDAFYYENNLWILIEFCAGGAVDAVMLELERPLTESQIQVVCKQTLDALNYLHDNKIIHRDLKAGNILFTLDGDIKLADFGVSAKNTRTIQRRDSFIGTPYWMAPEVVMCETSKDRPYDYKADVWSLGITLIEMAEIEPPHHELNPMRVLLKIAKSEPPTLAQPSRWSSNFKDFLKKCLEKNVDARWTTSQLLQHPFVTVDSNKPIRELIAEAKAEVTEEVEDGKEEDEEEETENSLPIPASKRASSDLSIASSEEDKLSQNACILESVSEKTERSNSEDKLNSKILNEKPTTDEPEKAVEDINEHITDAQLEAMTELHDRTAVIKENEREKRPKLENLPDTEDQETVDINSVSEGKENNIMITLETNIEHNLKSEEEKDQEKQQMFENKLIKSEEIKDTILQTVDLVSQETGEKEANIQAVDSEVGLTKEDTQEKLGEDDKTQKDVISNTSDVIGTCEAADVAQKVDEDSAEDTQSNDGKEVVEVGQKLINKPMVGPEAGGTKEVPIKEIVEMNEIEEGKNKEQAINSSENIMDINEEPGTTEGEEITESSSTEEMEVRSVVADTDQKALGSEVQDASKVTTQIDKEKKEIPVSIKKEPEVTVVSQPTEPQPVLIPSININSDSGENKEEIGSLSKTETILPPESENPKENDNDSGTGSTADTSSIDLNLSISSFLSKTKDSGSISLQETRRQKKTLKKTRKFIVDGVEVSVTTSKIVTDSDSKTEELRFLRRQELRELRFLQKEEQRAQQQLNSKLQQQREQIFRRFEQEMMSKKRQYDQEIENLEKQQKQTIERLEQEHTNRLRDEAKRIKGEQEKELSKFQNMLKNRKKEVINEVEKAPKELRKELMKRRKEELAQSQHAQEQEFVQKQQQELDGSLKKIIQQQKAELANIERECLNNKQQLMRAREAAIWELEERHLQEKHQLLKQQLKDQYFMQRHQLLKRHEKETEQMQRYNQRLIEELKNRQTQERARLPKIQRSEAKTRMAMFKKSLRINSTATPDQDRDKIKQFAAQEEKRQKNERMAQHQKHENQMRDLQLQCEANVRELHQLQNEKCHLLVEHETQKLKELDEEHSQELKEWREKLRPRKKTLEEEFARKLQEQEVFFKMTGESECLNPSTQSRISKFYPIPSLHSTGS
T5 sequence (Q15208 whole entry): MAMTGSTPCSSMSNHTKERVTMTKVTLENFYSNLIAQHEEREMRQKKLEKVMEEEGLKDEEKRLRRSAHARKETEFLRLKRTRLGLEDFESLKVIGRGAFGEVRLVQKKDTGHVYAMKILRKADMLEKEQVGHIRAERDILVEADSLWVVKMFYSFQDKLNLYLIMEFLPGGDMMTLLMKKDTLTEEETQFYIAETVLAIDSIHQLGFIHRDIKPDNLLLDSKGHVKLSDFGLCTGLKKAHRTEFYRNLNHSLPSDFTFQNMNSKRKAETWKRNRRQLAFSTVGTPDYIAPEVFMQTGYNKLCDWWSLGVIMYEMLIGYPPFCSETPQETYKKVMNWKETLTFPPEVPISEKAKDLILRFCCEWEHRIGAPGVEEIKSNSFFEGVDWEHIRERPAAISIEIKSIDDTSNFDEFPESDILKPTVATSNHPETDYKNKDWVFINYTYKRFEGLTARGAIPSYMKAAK
T1 sequence (O96017 whole entry): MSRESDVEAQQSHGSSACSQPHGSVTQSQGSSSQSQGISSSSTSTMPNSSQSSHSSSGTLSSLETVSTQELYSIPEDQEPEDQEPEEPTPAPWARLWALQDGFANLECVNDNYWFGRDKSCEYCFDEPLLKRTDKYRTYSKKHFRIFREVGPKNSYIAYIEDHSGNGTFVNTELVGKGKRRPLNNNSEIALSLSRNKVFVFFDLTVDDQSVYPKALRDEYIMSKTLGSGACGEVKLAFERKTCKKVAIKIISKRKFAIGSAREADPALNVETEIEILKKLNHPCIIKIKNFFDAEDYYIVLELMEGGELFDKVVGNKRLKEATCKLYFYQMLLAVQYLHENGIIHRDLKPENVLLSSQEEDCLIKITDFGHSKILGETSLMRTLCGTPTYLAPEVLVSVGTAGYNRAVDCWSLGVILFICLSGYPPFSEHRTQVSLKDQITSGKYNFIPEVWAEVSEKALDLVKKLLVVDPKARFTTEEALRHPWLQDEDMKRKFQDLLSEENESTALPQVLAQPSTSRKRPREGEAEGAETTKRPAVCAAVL

`O=C(c1ccc(F)cc1)C1CCN(CCn2c(=O)[nH]c3ccccc3c2=O)CC1` [Ketanserin]: in assay [1], the “SILAC ratio, CHK2 probe-modified peptide” value came out at 1.6. For the same compound, the “SILAC ratio, MP2K3 probe-modified peptide” value in assay [2] turned out to be 1.4. Also, the “SILAC ratio, PI42C probe-modified peptide” value in assay [3] was determined as 1.2. The “SILAC ratio, SLK probe-modified peptide” value in assay [4] came to 1.3. The “SILAC ratio, STK38 probe-modified peptide” value in assay [5] is on record as 1.3.

As to `Fc1ccc(C(=C2CCNCC2)c2ccc(F)cc2)cc1` [RF001, 4-(Bis(4-fluorophenyl)methylene) piperidine], the “CHK2 ATP acyl-phosphate labeling response (words, FIG. 20)” value in assay [1] (H82 and HEK293T, 1 mM RF001) is given as “activator of CHK2”. Besides, the “SILAC ratio, CHK2 probe-modified peptide” value in assay [1] amounted to 0.2. Besides, the “SILAC ratio, MP2K3 probe-modified peptide” value in assay [2] is 1.2. Also, in assay [3], the “SILAC ratio, PI42C probe-modified peptide” value is given as 0.8. The “SILAC ratio, SLK probe-modified peptide” value in assay [4] came out at 1.5. Besides, in assay [5], the “SILAC ratio, STK38 probe-modified peptide” value is listed as 1.4.

For `Cc1nc2sccn2c(=O)c1CCN1CCC(=C(c2ccc(F)cc2)c2ccc(F)cc2)CC1` [Ritanserin], the “SILAC ratio, CHK2 probe-modified peptide” value in assay [1] amounted to 2.2. For the same compound, the “SILAC ratio, MP2K3 probe-modified peptide” value in assay [2] was determined as 1.7. The “SILAC ratio, PI42C probe-modified peptide” value in assay [3] is on record as 1.7. Further, in assay [4], the “SILAC ratio, SLK probe-modified peptide” value is 3.0. Further, the “SILAC ratio, STK38 probe-modified peptide” value in assay [5] stood at 2.0.

The record behind these values is patent US12643867B2, “Compositions and uses thereof” (University of Virginia Patent Foundation, priority 2017, dated 2026).
